# In patent publication US20220046923A1, “HERBICIDAL CINNOLINIUM COMPOUNDS” (SYNGENTA CROP PROTECTION AG, priority 2018, published 2022):
# Where a name gives a salt, the structure may show the parent alone.
# What was measured:
# Assay in all cases: Post-emergence efficacy, glasshouse spray test
# Format in all cases: in vivo
# [1] = test system: Echinochloa crus-galli (ECHCG); conditions: application rate 1000 g/Ha, evaluated after 13 days; for pest or weed control at 1000 g/ha: Echinochloa crus-galli, post-emergence, 312 h, read-out: Control of weed species ECHCG after post-emergence application (100=total damage to plant; 0=no damage to plant)
# Method: (§1) Seeds of a variety of test species were sown in standard soil in pots. After cultivation for 14 days (post-emergence) under controlled conditions in a glasshouse (at 24/16° C., day/night; 14 hours light; 65% humidity), the plants were sprayed with an aqueous spray solution derived from the dissolution of the technical active ingredient formula (I) in a small amount of acetone and a special solvent and emulsifier mixture referred to as IF50 (11.12% Emulsogen EL360 TM+44.44% N-methylpyrrolidone+44.44% Dowanol DPM glycol ether), to create a 50 g/l solution which was then diluted to required concentration using 0.25% or 1% Empicol ESC70 (Sodium lauryl ether sulphate)+1% ammonium sulphate as diluent. The test plants were then grown in a glasshouse under controlled conditions (at 24/16° C., day/night; 14 hours light; 65% humidity) and watered twice daily. After 13 days the test was evaluated (100=total damage to plant; 0=no damage to plant).
# (§2) Ipomoea hederacea (IPOHE), Euphorbia heterophylla (EPHHL), Chenopodium album (CHEAL), Amaranthus palmeri (AMAPA), Lolium perenne (LOLPE), Digitaria sanguinalis (DIGSA), Eleusine indica (ELEIN), Echinochloa crus-galli (ECHCG), Setaria faberi (SETFA)
# [2] = test system: Setaria faberi (SETFA); conditions: application rate 1000 g/Ha, evaluated after 13 days; for pest or weed control at 1000 g/ha: Setaria faberi, post-emergence, 312 h, read-out: Control of weed species SETFA after post-emergence application (100=total damage to plant; 0=no damage to plant)
# Method: as §1, §2
# [3] = test system: Euphorbia heterophylla (EPHHL); conditions: application rate 1000 g/Ha, evaluated after 13 days; for pest or weed control at 1000 g/ha: Euphorbia heterophylla, post-emergence, 312 h, read-out: Control of weed species EPHHL after post-emergence application (100=total damage to plant; 0=no damage to plant)
# Method: as §1, §2
# [4] = test system: Chenopodium album (CHEAL); conditions: application rate 1000 g/Ha, evaluated after 13 days; for pest or weed control at 1000 g/ha: Chenopodium album, post-emergence, 312 h, read-out: Control of weed species CHEAL after post-emergence application (100=total damage to plant; 0=no damage to plant)
# Method: as §1, §2
# [5] = test system: Lolium perenne (LOLPE); conditions: application rate 1000 g/Ha, evaluated after 13 days; for pest or weed control at 1000 g/ha: Lolium perenne, post-emergence, 312 h, read-out: Control of weed species LOLPE after post-emergence application (100=total damage to plant; 0=no damage to plant)
# Method: as §1, §2
# [6] = test system: Ipomoea hederacea (IPOHE); conditions: application rate 1000 g/Ha, evaluated after 13 days; for pest or weed control at 1000 g/ha: Ipomoea hederacea, post-emergence, 312 h, read-out: Control of weed species IPOHE after post-emergence application (100=total damage to plant; 0=no damage to plant)
# Method: as §1, §2
# [7] = test system: Amaranthus palmeri (AMAPA); conditions: application rate 1000 g/Ha, evaluated after 13 days; for pest or weed control at 1000 g/ha: Amaranthus palmeri, post-emergence, 312 h, read-out: Control of weed species AMAPA after post-emergence application (100=total damage to plant; 0=no damage to plant)
# Method: as §1, §2
# [8] = test system: Eleusine indica (ELEIN); conditions: application rate 1000 g/Ha, evaluated after 13 days; for pest or weed control at 1000 g/ha: Eleusine indica, post-emergence, 312 h, read-out: Control of weed species ELEIN after post-emergence application (100=total damage to plant; 0=no damage to plant)
# Method: as §1, §2
# [9] = test system: Digitaria sanguinalis (DIGSA); conditions: application rate 1000 g/Ha, evaluated after 13 days; for pest or weed control at 1000 g/ha: Digitaria sanguinalis, post-emergence, 312 h, read-out: Control of weed species DIGSA after post-emergence application (100=total damage to plant; 0=no damage to plant)
# Method: as §1, §2
SMILES,pest or weed control at 1000 g/ha [1] [%],pest or weed control at 1000 g/ha [2] [%],pest or weed control at 1000 g/ha [3] [%],pest or weed control at 1000 g/ha [4] [%],pest or weed control at 1000 g/ha [5] [%],pest or weed control at 1000 g/ha [6] [%],pest or weed control at 1000 g/ha [7] [%],pest or weed control at 1000 g/ha [8] [%],pest or weed control at 1000 g/ha [9] [%],Control of weed species ECHCG after post-emergence application (100=total damage to plant; 0=no damage to plant) [1],Control of weed species SETFA after post-emergence application (100=total damage to plant; 0=no damage to plant) [2],Control of weed species EPHHL after post-emergence application (100=total damage to plant; 0=no damage to plant) [3],Control of weed species CHEAL after post-emergence application (100=total damage to plant; 0=no damage to plant) [4],Control of weed species LOLPE after post-emergence application (100=total damage to plant; 0=no damage to plant) [5],Control of weed species IPOHE after post-emergence application (100=total damage to plant; 0=no damage to plant) [6],Control of weed species AMAPA after post-emergence application (100=total damage to plant; 0=no damage to plant) [7],Control of weed species ELEIN after post-emergence application (100=total damage to plant; 0=no damage to plant) [8],Control of weed species DIGSA after post-emergence application (100=total damage to plant; 0=no damage to plant) [9]
"COC(=O)CCC[n+]1ccc2ccccc2n1 [Compound A16, methyl 4-cinnolin-2-ium-2-ylbutanoate 2,2,2-trifluoroacetate]",50,50,40,70,20,10,50,60,40,,,,,,,,,
O=C(O)CCC[n+]1ccc2ccccc2n1 [Compound A17],,,,,,,,,,30,40,40,60,40,30,70,60,40
N[C@@H](CCC[n+]1ccc2ccccc2n1)C(=O)[O-].O=C(O)C(F)(F)F [Compound A18],,,,,,,,,,30,20,20,100,30,30,60,90,40
"O=S(=O)([N-]CC[n+]1ccc2ccccc2n1)C(F)(F)F [Compound A19, 2-cinnolin-2-ium-2-ylethyl(trifluoromethylsulfonyl)azanide]",10,10,20,10,0,30,10,0,10,,,,,,,,,
c1ccc2n[n+](Cc3nnn[n-]3)ccc2c1 [Compound A20],20,10,70,10,10,0,30,20,20,,,,,,,,,
"CN(C)S(=O)(=O)[N-]C(=O)C[n+]1ccc2ccccc2n1 [Compound A21, (2-cinnolin-2-ium-2-ylacetyl)-(dimethylsulfamoyl)azanide]",30,0,70,50,0,20,10,0,10,,,,,,,,,
O=S(=O)([O-])CC[n+]1ccc2cccc(Cl)c2n1 [Compound A22],40,30,70,70,20,20,70,70,50,,,,,,,,,
"N[C@@H](C[n+]1ccc2ccccc2n1)C(=O)[O-] [Compound A23, (2S)-2-amino-3-cinnolin-2-ium-2-yl-propanoic Acid 2,2,2-trifluoroacetate]",30,40,30,30,10,20,60,20,40,,,,,,,,,
"O=S(=O)([O-])CC[n+]1ccc2ccccc2n1 [Compound A24, 2-cinnolin-2-ium-2-ylethanesulfonate]",40,60,70,60,40,80,60,80,80,,,,,,,,,
O=S(=O)([O-])CCCC[n+]1ccc2ccccc2n1 [Compound A25],0,30,30,60,50,50,50,60,20,,,,,,,,,
O=S(=O)([O-])OCC[n+]1ccc2ccccc2n1 [Compound A26],30,60,90,70,60,70,100,70,70,,,,,,,,,
O=S(=O)([O-])OCCC[n+]1ccc2ccccc2n1 [Compound A27],50,70,60,90,40,50,100,80,70,,,,,,,,,
O=S(=O)([O-])CC(O)C[n+]1ccc2ccccc2n1 (stereo not drawn) [Compound A28],40,50,80,70,60,60,90,80,60,,,,,,,,,
CS(=O)(=O)[N-]C(=O)CCC[n+]1ccc2ccccc2n1 [Compound A30],10,20,50,60,10,10,70,20,20,,,,,,,,,
"O=S(=O)([O-])OC[n+]1ccc2ccccc2n1 [Compound A31, cinnolin-2-ium-2-ylmethyl hydrogen sulfate]",0,0,30,20,0,30,30,0,0,,,,,,,,,
